Starred links: 1 amine or outer side, 2 acyl side, 3 side chain; linkers in the order of their positions; H or OH if unused. Positions of bridges follow the written chain, without caps; N, C: chain ends. Non-standard residues stand in square brackets, D forms with d. Residues, ends and D or L forms follow the SMILES beside them. ξ: configuration not given here. *: point of attachment. hTyr(3S-OH,4S-OH,3'-OSO3H) = N[C@H](C(=O)O)[C@H](O)[C@@H](O)c1ccc(O)c(OS(=O)(=O)O)c1; Orn(4R-OH,5R-OH) = O=C([C@H](C[C@@H](O)[C@@H](O)N[*:3])N[*:1])[*:2]; Pro(3S-OH,4S-Me) = C[C@H]1CN[C@H](C(=O)O)[C@H]1O; X1 = CCCCCOc1ccc(-c2cc(-c3ccc(C(=O)*)cc3)no2)cc1; Gln(3R-OH) = NC(=O)C[C@@H](O)[C@H](N)C(=O)O; Hyp = O=C(O)[C@@H]1C[C@@H](O)CN1; ξThr(3R) = C[C@@H](O)C(N)C(=O)O
Experiment: Inventors' finding on stability of micafungin in liquid state
Assay type: physicochemical

## CCCCCOc1ccc(-c2cc(-c3ccc(C(=O)N[C@H]4C[C@@H](O)[C@@H](O)NC(=O)[C@@H]5[C@@H](O)[C@@H](C)CN5C(=O)[C@H]([C@H](O)CC(N)=O)NC(=O)[C@H]([C@H](O)[C@@H](O)c5ccc(O)c(OS(=O)(=O)O)c5)NC(=O)[C@@H]5C[C@@H](O)CN5C(=O)C([C@@H](C)O)NC4=O)cc3)no2)cc1 (stereo partly drawn) [micafungin, Micafungin] (X1-[Orn(4R-OH,5R-OH)][ξThr(3R)][Hyp][hTyr(3S-OH,4S-OH,3'-OSO3H)][Gln(3R-OH)][Pro(3S-OH,4S-Me)]; lactam 1-C)
  Stability in liquid state: heat sensitive and shows temperature dependant degradation in liquid state

Source: US20190151241A1, “STABLE PHARMACEUTICAL INJECTABLE COMPOSITIONS OF MICAFUNGIN” (CADILA HEALTHCARE LIMITED, priority 2017, published 2019)
